Source: patent US20260176270A1 (Exelixis, Inc., priority 2022, published 2026)
pIC50: −log10 of the molar value. Like-named read-outs stand apart in the source and are kept apart here.

Assays:
PKMYT1 = target: T1, PKMYT1 (Homo sapiens, UniProt Q99640); test: ADP-Glo PKMYT1 ATP-depletion assay; settings: 50 nM PKMYT1, 13.3 nM CDK1, read-out: Biochemical IC50
T1 construct: PKMYT1 (93 kD, full length, N-terminal GST tag from Signal Chem); GST (N); purchased Signal Chem
T1 sequence (Q99640 1-499): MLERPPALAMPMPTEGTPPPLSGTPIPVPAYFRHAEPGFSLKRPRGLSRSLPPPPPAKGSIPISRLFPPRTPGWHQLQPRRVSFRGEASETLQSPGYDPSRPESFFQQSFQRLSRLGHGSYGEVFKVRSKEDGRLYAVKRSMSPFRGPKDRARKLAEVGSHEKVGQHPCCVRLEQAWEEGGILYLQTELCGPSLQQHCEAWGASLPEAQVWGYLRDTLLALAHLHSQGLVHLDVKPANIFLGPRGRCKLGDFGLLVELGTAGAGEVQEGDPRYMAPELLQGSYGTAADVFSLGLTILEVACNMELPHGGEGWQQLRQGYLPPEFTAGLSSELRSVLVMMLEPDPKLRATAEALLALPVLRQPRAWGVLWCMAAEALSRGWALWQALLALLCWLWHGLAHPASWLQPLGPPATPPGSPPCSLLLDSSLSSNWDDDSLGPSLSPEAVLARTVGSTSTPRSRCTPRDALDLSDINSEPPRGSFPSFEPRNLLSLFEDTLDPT
How it was run: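 Full-length N-terminal GST-tagged PKMYT1 (50 nM) with GST-CDK1 (13.3 nM) as substrate and 88 µM ATP, in Hepes buffer with MgCl2, MnCl2, DTT and BSA; DMSO <1%. Incubated 120 min at RT. ADP formed was quantified by ADP-Glo luminescence and used to derive biochemical IC50.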

[1] = system: phosphorylation of CDK1 at Thr14 in HCC1806 cells; test: Cell lysate AlphaLISA assay measuring inhibition of phosphorylation of CDK1 Thr14; assay type: cell-based; settings: read-out: Cellular IC50
How it was run: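 HCC1806 cells seeded overnight, then treated 4 h at 37 °C, 5% CO2 with compounds in DMSO; washed and lysed, lysates frozen overnight at −80 °C. CDK1 Thr14 phosphorylation read by AlphaLISA SureFire Ultra; data normalized to DMSO (0% inhibition) and 3 μM reference compound to give IC50.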

Row | pIC50 (PKMYT1) | pIC50 ([1]; 4 hours) | pIC50 ([1]; Homo sapiens, HCC1806, 4 h) | SMILES
1 | > 7.30 | 6.30 to 7.30 |  | Cc1cnc2cc(C(N)=O)c(N)c(-c3c(C)ccc(O)c3C)c2n1 (atropisomer, axis not shown) [Compound 188]
2 | 5.30 to 6.00 | ≤ 5.30 |  | Cc1ccc(O)c(C)c1-c1c(N)c(C(N)=O)nc2nccnc12 (single isomer, unassigned) [Compound 128, (M)-7-Amino-8-(3-hydroxy-2,6-dimethylphenyl)pyrido[2,3-b]pyrazine-6-carboxamide]
3 | ≤ 5.30 | ≤ 5.30 |  | Cc1c(O)cccc1-c1c(N)c(C(N)=O)cc2nc(C)c(=O)n(C)c12 (atropisomer, axis not shown) [Compound 170]
4 | ≤ 5.30 | ≤ 5.30 |  | Cc1cnc2cc(C(N)=O)c(N)c(-c3c(C)ccc(O)c3C)c2n1 (atropisomer, axis not shown) [Compound 192]
5 | 5.30 to 6.00 |  | ≤ 5.30 | Cc1c(O)cccc1-c1c(N)c(C(N)=O)cc2nc(O)c(C(F)(F)F)nc12 [Compound 137]
6 | > 7.30 |  | > 7.30 | Cc1c(O)cccc1-c1c(N)c(C(N)=O)cc2nccc(C#N)c12 [Compound 241]
7 | > 7.30 | 6.00 to 6.30 |  | Cc1c(F)cncc1C1=c2ncccc2=NC(C(N)=O)C1N (centres unmarked) [Compound 226]
8 | > 7.30 | 6.30 to 7.30 |  | CCn1ccc2cc(C(N)=O)c(N)c(-c3cccc(O)c3C)c2c1=O (atropisomer, axis not shown) [Compound 329]
9 | ≤ 5.30 | ≤ 5.30 |  | Cc1c(-c2c3c(cc4nccnc24)C(=O)NC(C)(C)N3)ccc(F)c1O (atropisomer, axis not shown) [Compound 313]
10 | ≤ 5.30 | ≤ 5.30 |  | Cc1ccc(O)c(C)c1-c1c(N)c(C(N)=O)nc2c(F)cccc12 (single isomer, unassigned) [Compound 39, (P)-3-amino-8-fluoro-4-(3-hydroxy-2,6-dimethylphenyl)quinoline-2-carboxamide]
11 | ≤ 5.30 |  | ≤ 5.30 | Cc1c(O)cccc1-c1c(N)c(C(N)=O)nc2nccc(O)c12 [Compound 297]
12 | ≤ 5.30 |  | ≤ 5.30 | CC1=C(c2c(N)c(C(N)=O)nc3cccnc23)CCC[C@@H]1O [Compound 310]
13 | 6.30 to 7.30 |  | 6.00 to 6.30 | Cc1c(O)cccc1-c1c(N)c(C(N)=O)nc2cccc(S(C)(=O)=O)c12 [Compound 319]
14 | 5.30 to 6.00 | ≤ 5.30 |  | Cc1c(O)cccc1-c1c(N)c(C(N)=O)cc2cccnc12 (single isomer, unassigned) [Compound 63]
15 | 6.30 to 7.30 |  | 6.00 to 6.30 | Cc1c(F)cncc1-c1c(N)c(C(N)=O)nc2cccnc12 [Compound 208]
16 | 5.30 to 6.00 |  | ≤ 5.30 | NC(=O)c1nc2cccnc2c(-c2cncnc2C(F)(F)F)c1N [Compound 253]
17 | 6.30 to 7.30 | 5.30 to 6.00 |  | Cc1ccc(O)c(C)c1-c1c(N)c(C(N)=O)nc2ccc(F)cc12 (atropisomer, axis not shown; (M)) [Compound 23, (M)-3-Amino-6-fluoro-4-(3-hydroxy-2,6-dimethylphenyl) quinoline-2-carboxamide]
18 | 6.30 to 7.30 | 6.00 to 6.30 |  | Cc1c(O)cccc1-c1c(N)c(C(N)=O)cc2nc(C(F)(F)F)cnc12 [Compound 189]
19 | 6.30 to 7.30 | 5.30 to 6.00 |  | NC(=O)c1nc2cccnc2c(-c2c(F)ccc3[nH]ncc23)c1N [Compound 220]
20 | 5.30 to 6.00 |  | ≤ 5.30 | Cn1c(-c2c(N)c(C(N)=O)nc3cccnc23)cccc1=O [Compound 158]
21 | 6.30 to 7.30 | ≤ 5.30 |  | Cc1c(O)cccc1-c1c(N)c(C(N)=O)cc2c1ncc(=O)n2C (atropisomer, axis not shown) [Compound 284]
22 | > 7.30 | 6.30 to 7.30 |  | COc1ccc2nc(C(N)=O)c(N)c(-c3cccc(O)c3C)c2n1 (atropisomer, axis not shown) [Compound 174]
23 | 5.30 to 6.00 |  | ≤ 5.30 | NC(=O)c1nc2cccnc2c(-c2ccnc3[nH]ncc23)c1N [Compound 191]

Row | pIC50 (PKMYT1) | pIC50 ([1]; 4 hours) | pIC50 ([1]; Homo sapiens, HCC1806, 4 h) | SMILES
24 | 5.30 to 6.00 | ≤ 5.30 |  | Cc1c(O)cccc1-c1c(N)c(C(N)=O)cc2ncccc12 (atropisomer, axis not shown; (P)) [Compound 69, (P)-6-amino-5-(3-hydroxy-2-methylphenyl)quinoline-7-carboxamide]
25 | ≤ 5.30 |  | ≤ 5.30 | Cc1c(O)cccc1-c1c(N)c(C(N)=O)nc2nccc(C#N)c12 [Compound 260]
26 | ≤ 5.30 |  | ≤ 5.30 | Cc1ccc2[nH]ncc2c1-c1cc(C(N)=O)cc2nccnc12 [Compound 70, 8-(5-Methyl-1H-indazol-4-yl)quinoxaline-6-carboxamide]
27 | 6.30 to 7.30 |  | 6.00 to 6.30 | Cc1c(O)cncc1-c1c(N)c(C(N)=O)nc2cccnc12 [Compound 155]
28 | > 7.30 |  | 6.30 to 7.30 | Cc1c(O)cccc1-c1c(N)c(C(N)=O)cc2cc(Cl)cnc12 [Compound 146]
29 | > 7.30 | 6.30 to 7.30 |  | COc1nc2cc(C(N)=O)c(N)c(-c3cccc(O)c3C)c2nc1C (atropisomer, axis not shown) [Compound 187]
30 | > 7.30 |  | 6.00 to 6.30 | Cc1ccc(O)c(C)c1-c1c(N)c(C(N)=O)cc2nc(-c3cnn(C)c3)cnc12 [Compound 251]
31 | 6.30 to 7.30 |  | 5.30 to 6.00 | NC(=O)c1nc2cccnc2c(-c2ccc(F)c3[nH]ncc23)c1N [Compound 190]
32 | ≤ 5.30 |  | ≤ 5.30 | NC(=O)c1cc(-c2cccc3[nH]ncc23)c2ccccc2n1 [Compound 14, 4-(1H-Indazol-4-yl)quinoline-2-carboxamide]
33 | 5.30 to 6.00 | ≤ 5.30 |  | Cc1ccc(O)c(C)c1-c1c(N)c(C(N)=O)cc2nc(C(F)(F)F)cnc12 (single isomer, unassigned) [Compound 111, (M)-7-Amino-8-(3-hydroxy-2,6-dimethylphenyl)-3-(trifluoromethyl)quinoxaline-6-carboxamide]
34 | 5.30 to 6.00 | ≤ 5.30 |  | Cc1c(O)cccc1-c1c(N)c(C(N)=O)cc2nc(C(F)(F)F)cnc12 (atropisomer, axis not shown; (M)) [Compound 103, (M)-7-Amino-8-(3-hydroxy-2-methylphenyl)-3-(trifluoromethyl)quinoxaline-6-carboxamide]
35 | 5.30 to 6.00 |  | ≤ 5.30 | NC(=O)c1nc2cccnc2c(-c2cnn3c2CCCC3)c1N [Compound 322]
36 | > 7.30 | 6.30 to 7.30 |  | Cc1cnc2c(-c3c(C)ccc(O)c3C)c(N)c(C(N)=O)cc2n1 [Compound 217]
37 | 6.30 to 7.30 |  | 5.30 to 6.00 | Cc1ccc2nc(C(N)=O)c(N)c(-c3cccc(O)c3C)c2c1 [Compound 55, 3-Amino-4-(3-hydroxy-2-methylphenyl)-6-methylquinoline-2-carboxamide]
38 | 6.30 to 7.30 |  | 5.30 to 6.00 | NC(=O)c1cc2nccnc2c(-c2cccc3[nH]ncc23)c1N [Compound 108, 7-Amino-8-(1H-indazol-4-yl)quinoxaline-6-carboxamide]
39 | 5.30 to 6.00 | 5.30 to 6.00 |  | Cc1c(O)cccc1-c1c(N)c(C(N)=O)nc2cc(C(F)(F)F)ccc12 (atropisomer, axis not shown) [Compound 147]
40 | > 7.30 | > 7.30 |  | Cc1cnc2c(-c3c(C)ccc(O)c3C)c(N)c(C(N)=O)cc2n1 (atropisomer, axis not shown) [Compound 222]
41 | 6.00 to 6.30 | 5.30 to 6.00 |  | Cc1c(O)cccc1-c1c(N)c(C(N)=O)cc2ccn(C)c(=O)c12 (atropisomer, axis not shown) [Compound 337]
42 | ≤ 5.30 |  | ≤ 5.30 | Cc1c(-c2c(N)c(C(N)=O)cc3nccnc23)ccc2oc(N)nc12 [Compound 197]
43 | 6.30 to 7.30 |  | 5.30 to 6.00 | NC(=O)c1cc2nccnc2c(-c2cc(O)ccc2Cl)c1N [Compound 121, 7-Amino-8-(2-chloro-5-hydroxyphenyl)quinoxaline-6-carboxamide]
44 | > 7.30 | 6.30 to 7.30 |  | Cc1ccc(O)c(C)c1-c1c(N)c(C(N)=O)cc2cccnc12 (single isomer, unassigned) [Compound 66, (P)-7-amino-8-(3-hydroxy-2,6-dimethyl-phenyl)quinoline-6-carboxamide]
45 | > 7.30 | > 7.30 |  | Cc1ccc(O)c(C)c1-c1c(N)c(C(N)=O)nc2nccnc12 (single isomer, unassigned) [Compound 127, (P)-7-Amino-8-(3-hydroxy-2,6-dimethylphenyl)pyrido[2,3-b]pyrazine-6-carboxamide]
46 | > 7.30 | 6.30 to 7.30 |  | Cc1c(O)cccc1-c1c(N)c(C(N)=O)cc2ccn(C)c(=O)c12 (atropisomer, axis not shown) [Compound 336]
